According to patent US8835429B2, “Pyrimidine compounds, their use as mTOR kinase and Pl3 kinase inhibitors, and their syntheses” (Wyeth LLC, priority 2009, dated 2014):

Experiments:
[1] = molecular target: PI3K-alpha (Homo sapiens, UniProt P42336); experiment: PI3K-alpha fluorescence polarization assay; format: biochemical; settings: 20 μM PIP2, 25 μM ATP; read-out: PI3Kα IC50
Description: The reaction buffer was 20 mM HEPES, pH 7.5, 2 mM MgCl2, 0.05% CHAPS; and 0.01% βME (added fresh). The stop/detection buffer was 100 mM HEPES, pH 7.5, 4 mM EDTA, 0.05% CHAPS; ATP 20 mM in water; PIP2 (diC8, Echelon, Salt Lake City Utah cat #P-4508) 1 mM in water (MW=856.5). The GST-GRP was 1.75 mg/mL or 1.4 mg/mL in 10% glycerol. The red detector (TAMRA) was 2.5 μM. Nunc 384-well black polypropylene fluorescent plates were used for PI3K assays.
The assay is run by placing 5 μL of diluted enzyme per well, then 5 μL of diluted compound (or 9.5 μL enzyme then 0.5 μL compound in DMSO) is added and mixed. Then, 10 μL substrate is added to start the reaction. The samples are incubated 30-60 minutes, then the reaction is stopped by adding 20 μL stop/detector mix. PI3K is diluted with reaction buffer (e.g., 5 μL or 7.5 μL PI3K into 620 μL reaction buffer), and 5 μL of diluted enzyme is used per well. A 5 μL portion of reaction buffer or of drug diluted in buffer (e.g., 4 μL/100 so final DMSO is 1% in reaction) is added to each. Pipetting up and down mixes the samples. Alternatively, the enzyme can be diluted to 1215 μL. In this case 9.8 μL is added per well and 0.2 μL compound is added in DMSO.
To prepare 1 mL of substrate solution, 955 μL reaction buffer, 40 μL PIP2, and 2.5 μL ATP are mixed. 10 μL of substrate is added to each well to start the reaction. […] The stop/detector mix is prepared by mixing 4 μL red detector and 1.6 μL or 2.0 μL GST-GRP with 1 mL stop buffer, which results in 10 nM probe and 70 nM GST-GRP. 20 μL of the stop/detector mix is added to each well to stop the reaction. The plates are read after 30-90 minutes keeping the red probe solutions dark. For the zero time point, stop/detector mix is added to the enzyme just before adding substrate. For an extra control, stop/detector mix is added to buffer (no enzyme) and substrate or to just buffer (no substrate). […] The recommended reaction has 0.06 μL per 20 μL (0.015 μg/20 μL) or 0.01125 μg/15 μL or 0.75 μg/mL.
Plates are read on machines with filters for TAMRA. The units are mP with no enzyme controls reading app 190-220 mP units. Fully active enzyme reduces fluorescence polarization down to 70-100 mP after 30 minutes. An active compound raises the mP values halfway to control or to 120-150 mP units.

[2] = molecular target: mTOR (Homo sapiens, UniProt P42345); experiment: mTOR enzyme assay (DELFIA, purified FLAG-TOR, His6-S6K substrate); format: biochemical; set-up: FLAG; settings: 100 μM ATP, 2 hours
Sequence of mTOR (P42345 1360-2549 limits assumed): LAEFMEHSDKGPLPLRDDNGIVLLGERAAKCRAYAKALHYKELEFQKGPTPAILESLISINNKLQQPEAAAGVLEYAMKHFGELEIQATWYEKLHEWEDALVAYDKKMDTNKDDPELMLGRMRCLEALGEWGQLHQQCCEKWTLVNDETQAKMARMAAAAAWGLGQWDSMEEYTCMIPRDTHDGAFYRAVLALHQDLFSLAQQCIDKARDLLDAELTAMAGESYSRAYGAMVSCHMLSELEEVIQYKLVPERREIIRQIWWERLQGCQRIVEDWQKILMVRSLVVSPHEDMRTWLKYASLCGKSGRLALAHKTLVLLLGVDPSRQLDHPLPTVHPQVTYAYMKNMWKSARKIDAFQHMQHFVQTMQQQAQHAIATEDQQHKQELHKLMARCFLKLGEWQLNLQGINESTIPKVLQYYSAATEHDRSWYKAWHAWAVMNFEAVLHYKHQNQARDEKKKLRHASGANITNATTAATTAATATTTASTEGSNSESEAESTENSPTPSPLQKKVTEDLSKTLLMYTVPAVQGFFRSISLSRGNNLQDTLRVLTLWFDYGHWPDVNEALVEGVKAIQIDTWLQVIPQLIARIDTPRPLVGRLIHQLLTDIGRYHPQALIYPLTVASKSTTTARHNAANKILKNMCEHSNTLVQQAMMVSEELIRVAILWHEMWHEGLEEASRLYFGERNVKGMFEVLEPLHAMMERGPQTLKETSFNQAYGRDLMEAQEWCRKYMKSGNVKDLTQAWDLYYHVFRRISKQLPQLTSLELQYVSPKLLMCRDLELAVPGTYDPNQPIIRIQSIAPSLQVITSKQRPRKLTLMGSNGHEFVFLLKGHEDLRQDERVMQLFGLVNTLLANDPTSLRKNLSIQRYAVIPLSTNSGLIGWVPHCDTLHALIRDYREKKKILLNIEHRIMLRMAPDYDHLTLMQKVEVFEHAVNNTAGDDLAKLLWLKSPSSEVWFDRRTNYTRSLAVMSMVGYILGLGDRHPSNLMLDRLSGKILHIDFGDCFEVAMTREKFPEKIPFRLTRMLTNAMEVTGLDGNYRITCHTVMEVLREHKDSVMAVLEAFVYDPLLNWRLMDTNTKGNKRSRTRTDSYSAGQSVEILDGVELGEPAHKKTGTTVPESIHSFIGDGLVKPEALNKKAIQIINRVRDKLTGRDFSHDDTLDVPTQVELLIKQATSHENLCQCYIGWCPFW

[3] = tested on: MDA468; experiment: In vitro cell growth assay (MTS), MDA468; format: cell-based; settings: 72 h, human breast line MDA468, three days after drug treatment, read-out: MDA IC50
Description: (§1) The cell lines used were human prostate lines LNCap and PC3MM2, human breast lines MDA468 and MCF7, human renal line HTB44 (A498), human colon line HCT116, and human ovarian line OVCAR3. Cells were plated in 96-well culture plates. One day following plating, the inhibitors were added to cells. Three days after drug treatment, viable cell densities were determined by metabolic conversion (by viable cells) of the dye MTS, a well-established cell proliferation assay. The assays were performed using an assay kit purchased from Promega Corp. (Madison, Wis.) following the protocol supplied with the kit. The MTS assay results were read in a 96-well plate reader by measuring absorbance at 490 nm. The effect of each treatment was calculated as percent of control growth relative to the vehicle-treated cells grown in the same culture plate.

[4] = tested on: LNCap; experiment: In vitro cell growth assay (MTS), LNCap; format: cell-based; settings: LNCaP, 72 h, human prostate line, three days after drug treatment
Description: as §1

Sequence of PI3K-alpha (P42336 whole entry, species assumed): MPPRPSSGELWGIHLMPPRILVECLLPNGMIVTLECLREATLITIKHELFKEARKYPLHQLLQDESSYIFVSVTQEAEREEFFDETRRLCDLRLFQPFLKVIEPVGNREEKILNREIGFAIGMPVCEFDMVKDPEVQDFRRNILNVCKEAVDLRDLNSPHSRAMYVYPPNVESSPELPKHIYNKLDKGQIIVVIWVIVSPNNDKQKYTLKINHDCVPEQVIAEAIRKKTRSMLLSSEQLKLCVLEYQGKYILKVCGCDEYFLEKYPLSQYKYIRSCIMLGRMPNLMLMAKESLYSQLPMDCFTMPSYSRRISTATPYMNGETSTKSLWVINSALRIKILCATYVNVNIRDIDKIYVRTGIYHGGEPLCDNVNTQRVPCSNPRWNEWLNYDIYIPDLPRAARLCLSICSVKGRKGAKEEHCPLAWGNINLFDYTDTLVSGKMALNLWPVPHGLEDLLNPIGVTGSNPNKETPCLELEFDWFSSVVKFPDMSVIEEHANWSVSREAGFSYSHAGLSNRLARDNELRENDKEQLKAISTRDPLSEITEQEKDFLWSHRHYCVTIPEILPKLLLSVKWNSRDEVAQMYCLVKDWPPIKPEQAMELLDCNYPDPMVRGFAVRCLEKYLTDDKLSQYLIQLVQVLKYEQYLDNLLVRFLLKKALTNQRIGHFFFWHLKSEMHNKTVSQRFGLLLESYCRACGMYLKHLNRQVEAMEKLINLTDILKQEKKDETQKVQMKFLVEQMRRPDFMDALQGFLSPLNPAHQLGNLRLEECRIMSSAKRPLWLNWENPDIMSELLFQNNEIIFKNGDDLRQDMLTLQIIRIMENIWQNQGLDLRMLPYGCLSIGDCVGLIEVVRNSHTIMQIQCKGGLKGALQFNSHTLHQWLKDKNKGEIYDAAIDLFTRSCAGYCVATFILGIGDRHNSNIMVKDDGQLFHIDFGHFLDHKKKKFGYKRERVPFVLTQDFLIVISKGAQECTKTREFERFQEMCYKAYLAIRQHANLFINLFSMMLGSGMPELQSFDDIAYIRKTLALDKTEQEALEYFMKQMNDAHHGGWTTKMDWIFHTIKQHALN
Sequence of PI3K-alpha (P27986 whole entry partner, species assumed): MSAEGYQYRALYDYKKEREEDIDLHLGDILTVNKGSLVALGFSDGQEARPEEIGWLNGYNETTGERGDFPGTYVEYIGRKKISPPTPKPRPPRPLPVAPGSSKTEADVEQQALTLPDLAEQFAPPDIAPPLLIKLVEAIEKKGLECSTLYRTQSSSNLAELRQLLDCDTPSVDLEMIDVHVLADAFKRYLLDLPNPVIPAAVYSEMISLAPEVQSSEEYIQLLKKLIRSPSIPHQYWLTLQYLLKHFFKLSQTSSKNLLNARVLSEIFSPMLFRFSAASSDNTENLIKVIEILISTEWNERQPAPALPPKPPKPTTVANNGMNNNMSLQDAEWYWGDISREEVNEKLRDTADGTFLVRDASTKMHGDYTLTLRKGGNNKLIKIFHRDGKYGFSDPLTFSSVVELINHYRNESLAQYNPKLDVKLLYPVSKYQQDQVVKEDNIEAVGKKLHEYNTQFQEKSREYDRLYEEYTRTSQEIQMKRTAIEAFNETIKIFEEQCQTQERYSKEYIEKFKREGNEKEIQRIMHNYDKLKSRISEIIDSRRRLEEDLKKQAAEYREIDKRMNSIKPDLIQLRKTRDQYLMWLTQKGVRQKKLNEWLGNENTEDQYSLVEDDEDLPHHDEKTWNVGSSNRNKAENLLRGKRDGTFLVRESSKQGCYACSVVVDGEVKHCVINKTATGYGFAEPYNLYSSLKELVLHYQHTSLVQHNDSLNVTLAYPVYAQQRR

Row | SMILES | IC50 [1] [nM] | IC50 [2] [nM] | IC50 [4] [nM] | IC50 [3] [nM]
1 | CNC(=O)Nc1ccc(-c2nc(OC(C)C)cc(N3CC4CCC(C3)O4)n2)cc1 [1-methyl-3-{4-[4-(1-methylethoxy)-6-(8-oxa-3-azabicyclo[3.2.1]oct-3-yl)pyrimidin-2-yl]phenyl}urea] | 700 | 3 | 190 | 890
2 | CCN(C(=O)Nc1ccc(N2CCN(C)CC2)cc1)c1ccc(-c2nc(N3CC4CCC(C3)O4)cc(N3CC4CCC(C3)O4)n2)cc1 [1-[4-(4,6-di-8-oxa-3-azabicyclo[3.2.1]oct-3-ylpyrimidin-2-yl)phenyl]-1-ethyl-3-[4-(4-methylpiperazin-1-yl)phenyl]urea] | 2440 | 195 | 2800 | 7000
3 | CN1CCN(Cc2ccc(NC(=O)Nc3ccc(-c4nc(CS(C)(=O)=O)cc(N5CC6CCC(C5)O6)n4)cc3)cc2)CC1 [1-{4-[(4-methylpiperazin-1-yl)methyl]phenyl}-3-(4-{4-[(methylsulfonyl)methyl]-6-(8-oxa-3-azabicyclo[3.2.1]oct-3-yl)pyrimidin-2-yl}phenyl)urea] | 520 | 4.05 | 80 | 140
4 | CCNC(=O)Nc1ccc(-c2cc(N3CC4CCC(C3)O4)nc(-c3ccc(NC(=O)NCC)cc3)n2)cc1 [N′,N′″-{[6-(8-oxa-3-azabicyclo[3.2.1]oct-3-yl)pyrimidine-2,4-diyl]di-4,1-phenylene}bis(1-ethylurea)] | 1660 | 1.85 | 310 | 790
5 | CC(C)Oc1cc(N2CC3CCC(C2)O3)nc(-c2ccc(NC(=O)NC3CC3)cc2)n1 [1-cyclopropyl-3-{4-[4-(1-methylethoxy)-6-(8-oxa-3-azabicyclo[3.2.1]oct-3-yl)pyrimidin-2-yl]phenyl}urea] | 7200 | 4.45 | 290 | 1800
6 | O=C(Nc1ccncc1)Nc1ccc(-c2nc(N3C4CCC3COC4)cc(N3C4CCC3COC4)n2)cc1 [1-[4-(4,6-di-3-oxa-8-azabicyclo[3.2.1]oct-8-ylpyrimidin-2-yl)phenyl]-3-pyridin-4-ylurea] | 954 | 0.655 | 3 | 19
7 | O=C(Nc1ccc(-c2nccc(N3CC4CCC(C3)O4)n2)cc1)OCCO [2-hydroxyethyl {4-[4-(8-oxa-3-azabicyclo[3.2.1]oct-3-yl)pyrimidin-2-yl]phenyl}carbamate] | 5070 | 165 | 4000 | 24000
8 | O=C(Nc1ccc(-c2nc(N3CC4CCC(C3)O4)cc(C(F)(F)F)n2)cc1)OCCO [2-hydroxyethyl {4-[4-(8-oxa-3-azabicyclo[3.2.1]oct-3-yl)-6-(trifluoromethyl)pyrimidin-2-yl]phenyl}carbamate] | 5160 | 15.5 | 950 | 4000
9 | CNC(=O)Nc1ccc(-c2nc(-c3ccccc3)cc(N3CC4CCC(C3)O4)n2)cc1 [1-methyl-3-{4-[4-(8-oxa-3-azabicyclo[3.2.1]oct-3-yl)-6-phenylpyrimidin-2-yl]phenyl}urea] | 953 | 22 | 510 | 2000
10 | O=C(Nc1ccc(-c2nc(-c3ccccc3)cc(N3CC4CCC(C3)O4)n2)cc1)NC1CC1 [1-cyclopropyl-3-{4-[4-(8-oxa-3-azabicyclo[3.2.1]oct-3-yl)-6-phenylpyrimidin-2-yl]phenyl}urea] | 3680 | 19.5 | 1000 | 5000
11 | O=C(Nc1ccc(-c2nc(N3CC4CCC(C3)O4)cc(C(F)(F)F)n2)cc1)NC1CC1 [1-cyclopropyl-3-{4-[4-(8-oxa-3-azabicyclo[3.2.1]oct-3-yl)-6-(trifluoromethyl)pyrimidin-2-yl]phenyl}urea] | 8160 | 10.4 | 450 | 3000

More lines, in order of falling IC50 [1], values ahead:

Row | IC50 [1] [nM] | IC50 [2] [nM] | IC50 [4] [nM] | SMILES | IC50 [3] [nM]
12 | 518 | 3.32 | 30 | CC(C)Oc1cc(N2CC3CCC(C2)O3)nc(-c2ccc(NC(=O)Nc3ccc(N4CCN(C)CC4)cc3)cc2)n1 [1-{4-[4-(1-methylethoxy)-6-(8-oxa-3-azabicyclo[3.2.1]oct-3-yl)pyrimidin-2-yl]phenyl}-3-[4-(4-methylpiperazin-1-yl)phenyl]urea] | 105
13 | 280 | 2.45 | 50 | O=C(Nc1ccncc1)Nc1ccc(-c2nc(N3CC4CCC(C3)O4)cc(C(F)(F)F)n2)cc1 [1-{4-[4-(8-oxa-3-azabicyclo[3.2.1]oct-3-yl)-6-(trifluoromethyl)pyrimidin-2-yl]phenyl}-3-pyridin-4-ylurea] | 250
14 | 242 | 3 | 90 | CS(=O)(=O)Cc1cc(N2CC3CCC(C2)O3)nc(-c2ccc(NC(=O)Nc3ccc(N4CCNCC4)cc3)cc2)n1 [1-(4-{4-[(methylsulfonyl)methyl]-6-(8-oxa-3-azabicyclo[3.2.1]oct-3-yl)pyrimidin-2-yl}phenyl)-3-(4-piperazin-1-ylphenyl)urea] | 110
15 | 236 | 0.825 | 150 | CS(=O)(=O)Cc1cc(N2CC3CCC(C2)O3)nc(-c2ccc(NC(=O)Nc3ccncc3)cc2)n1 [1-(4-{4-[(methylsulfonyl)methyl]-6-(8-oxa-3-azabicyclo[3.2.1]oct-3-yl)pyrimidin-2-yl}phenyl)-3-pyridin-4-ylurea] | 75
16 | 229 | 5.6 | 290 | O=C(Nc1ccncc1)Nc1ccc(-c2nc(-c3ccccc3)cc(N3CC4CCC(C3)O4)n2)cc1 [1-{4-[4-(8-oxa-3-azabicyclo[3.2.1]oct-3-yl)-6-phenylpyrimidin-2-yl]phenyl}-3-pyridin-4-ylurea] | 390
17 | 224 | 14.5 | 180 | O=C(Nc1ccncc1)Nc1ccc(-c2nccc(N3CC4CCC(C3)O4)n2)cc1 [1-{4-[4-(8-oxa-3-azabicyclo[3.2.1]oct-3-yl)pyrimidin-2-yl]phenyl}-3-pyridin-4-ylurea] | 650
18 | 172 | 3 | 0.9 | CS(=O)(=O)Cc1cc(N2CC3CCC(C2)O3)nc(-c2ccc(NC(=O)Nc3ccccc3)cc2)n1 [1-(4-{4-[(methylsulfonyl)methyl]-6-(8-oxa-3-azabicyclo[3.2.1]oct-3-yl)pyrimidin-2-yl}phenyl)-3-phenylurea] | 9
19 | 125 | 0.56 | 28 | O=C(Nc1ccncc1)Nc1ccc(-c2nc(N3CC4CCC(C3)O4)cc(N3CC4CCC(C3)O4)n2)cc1 [1-[4-(4,6-di-8-oxa-3-azabicyclo[3.2.1]oct-3-ylpyrimidin-2-yl)phenyl]-3-pyridin-4-ylurea] | 50
20 | 101 | 2.8 | 180 | O=C(Nc1ccc(-c2cc(N3CC4CCC(C3)O4)nc(-c3ccc(NC(=O)Nc4cccnc4)cc3)n2)cc1)Nc1cccnc1 [N,N″-{[6-(8-oxa-3-azabicyclo[3.2.1]oct-3-yl)pyrimidine-2,4-diyl]di-4,1-phenylene}bis(3-pyridin-3-ylurea)] | 380
21 | 69.5 | 3.2 | 220 | O=C(Nc1ccncc1)Nc1ccc(-c2cc(N3CC4CCC(C3)O4)nc(-c3ccc(NC(=O)Nc4ccncc4)cc3)n2)cc1 [N,N″-{[6-(8-oxa-3-azabicyclo[3.2.1]oct-3-yl)pyrimidine-2,4-diyl]di-4,1-phenylene}bis(3-pyridin-4-ylurea)] | 780
